Key:
[1] = Induction of anti-CD3/CD28 antibodies-stimulated human T cell activation at 10 uM assessed fold increase in GM-CSF secretion measured by ELISA assay; type: functional, T cell line
[2] = Induction of anti-CD3/CD28 antibodies-stimulated human CD4+ T cell activation at 10 uM assessed fold increase in cell proliferation measured by flow cytometry analysis; type: functional, T cell line
[3] = Induction of anti-CD3/CD28 antibodies-stimulated human anergic T cell activation at 1.11 uM assessed fold increase in IFN-gamma secretion measured by ELISA assay; type: functional, T cell line
[4] = Induction of anti-CD3 antibodies-stimulated human CD8+ T cell activation in immunocompetent mouse assessed fold increase in CD25 expression at 90 mg/kg, po administered twice a day; type: functional; further: reference of the scale not given here
[5] = Induction of anti-CD3 antibodies-stimulated human CD4+ T cell activation in immunocompetent mouse assessed fold increase in CD25 expression at 135 mg/kg, po administered twice a day; type: functional; further: reference of the scale not given here
[6] = Induction of activation of human CD56+ CD3- NK cells co-cultured with human K562 cells in 1:1 ratio and assessed as increase in TNF-alpha secretion at 2.5 uM measured by ELISA assay; type: functional, Natural killer cell
[7] = Induction of anti-CD3 antibodies-stimulated human T cell activation at 1.11 uM assessed fold increase in TNF-alpha secretion measured by ELISA assay; type: functional, T cell line; further: reference of the scale not given here
[8] = Induction of anti-CD3 antibodies-stimulated human T cell activation at 1.11 uM assessed fold increase in IFN-gamma secretion measured by ELISA assay; type: functional, T cell line; further: reference of the scale not given here
[9] = Induction of anti-CD3 antibodies-stimulated human CD4+ T cell activation in immunocompetent mouse assessed fold increase in CD25 expression at 90 mg/kg, po administered twice a day; type: functional; further: reference of the scale not given here
[10] = Induction of anti-CD3/CD28 antibodies-stimulated human CD4+ T cell activation at 1.11 uM assessed fold increase in cell proliferation measured by flow cytometry analysis; type: functional, T cell line
[11] = Induction of anti-CD3 antibodies-stimulated human CD8+ T cell activation in immunocompetent mouse assessed fold increase in CD25 expression at 90 mg/kg, ip administered thrice a day; type: functional; further: reference of the scale not given here
[12] = Induction of anti-CD3 antibodies-stimulated human CD8+ T cell activation at 10 uM assessed fold increase in cell proliferation measured by flow cytometry analysis; type: functional, T cell line; further: reference of the scale not given here
[13] = Induction of anti-CD3 antibodies-stimulated human exhausted T cell activation assessed fold increase in IFN-gamma secretion measured by ELISA assay; type: functional, T cell line; further: reference of the scale not given here
[14] = Induction of anti-CD3/CD28 antibodies-stimulated human T cell activation at 10 uM assessed fold increase in IFN-gamma secretion measured by ELISA assay; type: functional, T cell line
[15] = Induction of anti-CD3/CD28 antibodies-stimulated human T cell activation at 1.11 uM assessed fold increase in TNF-alpha secretion measured by ELISA assay; type: functional, T cell line
[16] = Induction of anti-CD3/CD28 antibodies-stimulated human CD8+ T cell activation at 10 uM assessed fold increase in CD69 expression measured by flow cytometry analysis; type: functional, T cell line
[17] = Induction of anti-CD3 antibodies-stimulated human CD8+ T cell activation in immunocompetent mouse assessed fold increase in CD25 expression at 135 mg/kg, po administered twice a day; type: functional; further: reference of the scale not given here
[18] = Induction of anti-CD3 antibodies-stimulated human CD4+ T cell activation in immunocompetent mouse assessed fold increase in CD25 expression at 180 mg/kg, po administered twice a day; type: functional; further: reference of the scale not given here
[19] = Induction of anti-CD3 antibodies-stimulated human CD8+ T cell activation at 1.11 uM assessed fold increase in CD69 expression measured by flow cytometry analysis; type: functional, T cell line; further: reference of the scale not given here
[20] = Induction of anti-CD3/CD28 antibodies-stimulated human T cell activation at 4 uM assessed fold increase in IL-2 secretion measured by ELISA assay; type: functional, T cell line
[21] = Induction of anti-CD3 antibodies-stimulated human CD8+ T cell activation in immunocompetent mouse assessed fold increase in CD25 expression at 180 mg/kg, po administered twice a day; type: functional; further: reference of the scale not given here
[22] = Induction of allogenic human T cell activation at 3 uM assessed fold increase in cell proliferation; type: functional, T cell line
[23] = molecular target: T1, E3 ubiquitin-protein ligase CBL-B (Homo sapiens, UniProt Q13191); assay: Inhibition of N-terminal Avi-tagged human CBL-B (36 to 427 residues) incubated with 60 nM Src kinase for 1.5 hrs followed by incubation with fluorescently labeled UbcH5B-Ub for 1 hr and measured by TR-FRET assay; type: single protein
T1 sequence (Q13191 whole entry, the tested form may be a part): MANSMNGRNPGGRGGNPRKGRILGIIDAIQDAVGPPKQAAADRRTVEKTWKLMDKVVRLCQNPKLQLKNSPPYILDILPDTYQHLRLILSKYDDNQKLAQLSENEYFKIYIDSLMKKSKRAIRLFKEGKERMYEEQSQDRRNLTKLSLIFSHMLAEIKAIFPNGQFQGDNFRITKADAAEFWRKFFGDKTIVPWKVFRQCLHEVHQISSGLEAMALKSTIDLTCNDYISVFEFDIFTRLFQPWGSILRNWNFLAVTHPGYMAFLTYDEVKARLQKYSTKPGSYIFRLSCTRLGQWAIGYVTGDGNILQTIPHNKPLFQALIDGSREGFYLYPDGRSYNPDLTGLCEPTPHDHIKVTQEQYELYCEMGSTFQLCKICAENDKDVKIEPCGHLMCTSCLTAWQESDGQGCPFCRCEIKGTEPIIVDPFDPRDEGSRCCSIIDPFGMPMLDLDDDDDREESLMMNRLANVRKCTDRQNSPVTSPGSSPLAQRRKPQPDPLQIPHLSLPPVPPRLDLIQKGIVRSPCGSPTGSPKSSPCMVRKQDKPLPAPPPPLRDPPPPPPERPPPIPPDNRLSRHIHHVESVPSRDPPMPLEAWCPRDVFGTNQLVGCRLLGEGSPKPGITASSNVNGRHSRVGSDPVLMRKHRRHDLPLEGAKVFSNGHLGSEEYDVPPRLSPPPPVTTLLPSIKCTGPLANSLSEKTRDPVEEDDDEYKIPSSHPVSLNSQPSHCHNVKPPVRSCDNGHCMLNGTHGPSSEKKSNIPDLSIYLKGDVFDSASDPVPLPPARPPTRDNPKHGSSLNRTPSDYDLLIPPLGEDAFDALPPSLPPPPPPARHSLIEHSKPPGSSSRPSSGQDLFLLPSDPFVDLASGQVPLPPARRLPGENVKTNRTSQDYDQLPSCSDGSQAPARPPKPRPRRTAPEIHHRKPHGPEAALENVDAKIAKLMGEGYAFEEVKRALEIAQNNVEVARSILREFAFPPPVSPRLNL

[24] = molecular target: T1, E3 ubiquitin-protein ligase CBL-B; assay: Binding affinity towards N-terminal biotinylated Avi-tagged human CBL-B (36 to 427 residues) measured by surface plasmon resonance assay

Row | SMILES | IC50 [23] [nM] | fold change (FC) [1] | fold change (FC) [2] | fold change (FC) [3] | fold change (FC) [4] | fold change (FC) [5] | fold change (FC) [6] | fold change (FC) [7] | fold change (FC) [8] | fold change (FC) [9] | fold change (FC) [10] | fold change (FC) [11] | fold change (FC) [12] | fold change (FC) [13] | fold change (FC) [14] | fold change (FC) [15] | fold change (FC) [16] | fold change (FC) [19] | fold change (FC) [20] | fold change (FC) [22] | other results
1 | C[C@H](c1cc2c(c(C(F)(F)F)c1)CN(c1cccc(C3(Cc4nncn4C)COC3)c1)C2=O)N1CC[C@H](F)C1 | < 100 | >4 | >4 | >4.01 | 1 | 1 | 2.01 | 1.51 | 2.01 | 1 | >4 | 1 | >4 | >1.61 | 3.01 | 2.01 | 1.201 | 1.201 | >=7.5 | 2.01 | fold change (FC) [17]: 1; fold change (FC) [18]: 1; fold change (FC) [21]: 1
2 | C[C@H](Cc1nncn1C)c1cccc(N2Cc3c(cc(CN4CC(O)C4)cc3C(F)(F)F)C2=O)c1 | < 100 | 1.51 | 3.01 | 2.51 | – | – | 2.01 | <=1.5 | <=2 | – | <=2 | – | <=2 | >1.61 | >4 | <=1.5 | <=1.2 | <=1.2 | >=7.5 | <=2 | Kd [24]: < 100 nM
3 | Cn1cnnc1[C@@H]1C[C@@H]1c1cccc(N2Cc3c(cccc3C(F)(F)F)C2=O)c1 | – | 2.01 | >4 | <=2.5 | 1 | 1.51 | 1.01 | <=1.5 | <=2 | 1 | <=2 | 1 | 3.01 | 1.41 | 2.01 | <=1.5 | 1.201 | <=1.2 | 2.51 | <=2 | fold change (FC) [17]: 1; fold change (FC) [18]: 2.01; fold change (FC) [21]: 1
4 | COC1CN(Cc2cc3c(c(C(F)(F)F)c2)CN(c2cccc([C@@](C)(F)C(F)(F)c4nncn4C)c2)C3=O)C1 | < 100 | 2.01 | >4 | 2.51 | – | – | 2.01 | <=1.5 | 3.01 | – | >4 | – | >4 | >1.61 | 2.01 | 1.51 | 1.201 | 1.201 | >=7.5 | <=2 | Kd [24]: < 100 nM
5 | Cn1cnnc1C(F)(F)C(C)(F)c1cccc(N2Cc3c(cc(CN4CC[C@@H](F)C4)cc3C(F)(F)F)C2=O)c1 (single isomer, unassigned) | < 100 | >4 | >4 | 2.51 | – | – | 2.01 | 1.51 | <=2 | – | >4 | – | >4 | >1.61 | >4 | 2.01 | 1.201 | 1.201 | >=7.5 | <=2 | Kd [24]: < 100 nM

The next lines start with results.

Row | IC50 [23] [nM] | SMILES | fold change (FC) [1] | fold change (FC) [2] | fold change (FC) [3] | fold change (FC) [4] | fold change (FC) [5] | fold change (FC) [6] | fold change (FC) [7] | fold change (FC) [8] | fold change (FC) [9] | fold change (FC) [10] | fold change (FC) [11] | fold change (FC) [12] | fold change (FC) [13] | fold change (FC) [14] | fold change (FC) [15] | fold change (FC) [16] | fold change (FC) [19] | fold change (FC) [20] | fold change (FC) [22] | other results
6 | < 100 | Cn1cnnc1CC1(c2cccc(N3Cc4c(cc(CN5CC(F)C5)cc4C(F)(F)F)C3=O)c2)COC1 | >4 | >4 | 2.51 | 1 | 1 | 2.01 | 1.51 | 2.01 | 1 | >4 | 1 | >4 | >1.61 | >4 | 2.01 | 1.201 | 1.201 | >=7.5 | 2.01 | fold change (FC) [17]: <1; fold change (FC) [18]: 1; fold change (FC) [21]: <1
7 | < 100 | C[C@@H](c1cc2c(c(C(F)(F)F)c1)CN(c1cccc(C3(Cc4nncn4C)COC3)c1)C2=O)N1CC[C@H](F)C1 | >4 | >4 | >4.01 | 1.51 | 1.51 | 2.01 | 1.51 | 3.01 | 1 | >4 | 1 | >4 | >1.61 | >4 | 2.01 | 1.201 | 1.401 | >=7.5 | >3 | fold change (FC) [17]: 2.01; fold change (FC) [18]: 2.01; fold change (FC) [21]: 1
8 | < 100 | Cn1cnnc1CC1(c2cccc(NC(=O)c3nc4c(C(F)(F)F)cccc4[nH]3)c2)COC1 | >4 | >4 | 2.51 | – | – | 1.01 | 1.51 | <=2 | – | >4 | – | >4 | 1.41 | 2.01 | 1.51 | 1.201 | 1.201 | >=7.5 | <=2 | Kd [24]: < 100 nM

From ChEMBL document CHEMBL5050844 (2019)
